The supplement of paper PMC2824726

System: MDA-MB-231
Test: shRNA barcode abundance ratio t_end/t_zero (depletion over 4 weeks of proliferation) (log2 ratio); higher = less depletion (weaker anti-proliferative effect of the shRNA)
Details: time after t zero 28 days
Experimental: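 Pooled lentiviral negative-selection screen of 305 pGIPZ shRNAs (Open Biosystems V2LHS clones; the 21-nt half-hairpin sense stem is embedded in a mir-30 scaffold) in MDA-MB-231 breast carcinoma cells, infected at MOI 0.3 with 0.5 ug/ml puromycin selection. Barcode abundance was read on barcode tiling microarrays (six 25-nt probes per 60-nt barcode) at t_zero (5 days post-infection) and t_end (33 days; 28 days of culture after t_zero). Values are median-normalised t_end/t_zero signal ratios, averaged over the tiling probes that passed a 10-fold background filter, from three biological replicates.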

Sequence | shRNA barcode abundance ratio t end/t zero (log2)
ACTGCTGTACTGGTTTGCAAA (targeted gene: BNIP2) | 0.104
CCATGTAATGGCAGTTATATT (targeted gene: HMGB1) | 0.175
GGCACAACACTAATTACCATT (targeted gene: PROK2) | 0.0935
AAGCGTGCTCTCCGAAGATAA (targeted gene: SORT1) | 0.237
CCTCATGTCTTGATAAGTTAA (targeted gene: FOXO1) | 0.0815
CGGTATTAAGTTGTAATTTAA (targeted gene: PROK2) | 0.137
GCTGCTTCTGTCTGGTTTATT (targeted gene: THY1) | -0.0341
GGCTAGACTTAGATTCATTAA (targeted gene: VHL) | 0.486
GCAGTATAGAGCGTGCAGATA (targeted gene: PTEN) | -0.0774
CCTTTCTCCAAACCCTCTTAA (targeted gene: BIRC2) | 0.28
GCAGATTCGTTCAGAGTCTAA (targeted gene: BIRC3) | 0.154
GCATGTAATAGAGTGTGCTAA (targeted gene: MSH2) | 1.01
GCACCTAGTGTCCAGATTCAT (targeted gene: HDAC3) | 0.129
GCCTACTTTCACACTAAGAAA (targeted gene: CASP8) | -0.242
CCTCAGTGTCTGTTGAAGTAA (targeted gene: BIRC6) | -0.238
GGAGAGAACTGTCATTTCTAA (targeted gene: IGF1R) | 0.393
GCTGGACAACTTGTTGTTAAA (targeted gene: IL10) | 0.168
CGAGGCAACTTGAACTCAGAA (targeted gene: IER3) | 0.272
CCCTTCTTTGGGAATATAATT (targeted gene: CBX4) | 0.505

Sequence | shRNA barcode abundance ratio t end/t zero (log2)
AGGCAATTTATCTTGATGTGA (targeted gene: FAIM3) | 0.137
CCTGCAAACCTTATCCTCTAT (targeted gene: MAPK8IP2) | 0.442
GCAAATTTCATGACCAGTAAA (targeted gene: TDGF1) | -0.234
CGCTACTTCCTCCTCAAGAAT (targeted gene: AKT1) | 0.372
TCAGGAAATGTTATCAGCAAA (targeted gene: BNIP2) | 0.477
GCTGTGGTTAATTACACATTA (targeted gene: ACVR1) | -0.208
CCAAATTGTGTTTGATGGATT (targeted gene: ESR1) | 0.202
CCAGATTTCTTACCTACCATA (targeted gene: BIRC2) | 0.213
GCTTGTTGTTTGAGAAGTTTA (targeted gene: BAG3) | 0.38
CCTTGCTGTTGTGAAATCTAT (targeted gene: ANXA5) | -0.252
GGAAGTGATCCAAATGTTAAA (targeted gene: BARD1) | -2.23
ACCCATTCTTCCCGTTCTTAA (targeted gene: HDAC1) | 0.135
GGACTCTCTTCTAGAGCCATA (targeted gene: BCL2L2) | 0.635
CCTACTAACAATATCTGTTAA (targeted gene: SOCS2) | 0.0566
TGGGAAGAACTTTAAGGATAT (targeted gene: SORT1) | -0.167
GCCTTGAAACATTGATGGAAT (targeted gene: BCL2) | 0.25
CCAGCTGTTTATGCATAGATA (targeted gene: CXCR4) | 1.87
CGCAAGAATCTGTTCCTAGTG (targeted gene: FAIM3) | -0.255
